This assay addresses Adenosine A2A receptor (Homo sapiens, UniProt P29274). The experiment in a line: cAMP assay in 293A cells stably expressing the adenosine A2A receptor (CGS21680 stimulation, HTRF). The class given is cell-based. Set-up: expressed in transfected cells; host or cells: 293A cells (Invitrogen, Cat# R705-07) infected with A2A-expressing lentivirus (custom packaged by Biosettia), puromycin selected. The note with it: 293A-A2AR cells, 0.1% BSA, 1 uM CGS; read-out: cAMP (nM) 0.1% BSA, 1 uM CGS. In general terms: Changes in cAMP serve as a functional read-out for many G protein-coupled receptors.

Several values for one entry are separate records, joined by “and”; a condition that tells them apart may be missing. Identical values can stand only once.

Sequence of Adenosine A2A receptor (P29274 whole entry): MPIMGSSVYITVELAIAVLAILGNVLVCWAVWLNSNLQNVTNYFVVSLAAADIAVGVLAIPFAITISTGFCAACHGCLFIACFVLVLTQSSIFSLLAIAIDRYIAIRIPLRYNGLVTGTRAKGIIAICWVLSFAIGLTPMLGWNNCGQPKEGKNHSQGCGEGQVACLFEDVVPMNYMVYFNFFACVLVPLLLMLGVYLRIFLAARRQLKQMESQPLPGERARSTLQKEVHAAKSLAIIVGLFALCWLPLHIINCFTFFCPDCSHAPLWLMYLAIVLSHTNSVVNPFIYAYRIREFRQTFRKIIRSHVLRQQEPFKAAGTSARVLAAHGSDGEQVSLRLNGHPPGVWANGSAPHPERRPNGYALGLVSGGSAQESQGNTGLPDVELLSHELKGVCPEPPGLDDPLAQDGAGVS

Regarding `Cc1cc(-c2c(OCc3cc4ccccc4n3C)nc(N)nc2-c2ccc(F)cc2)cc(C(F)F)n1` [Example 319, 5-(2-(difluoromethyl)-6-methylpyridin-4-yl)-4-(4-fluorophenyl)-6-((1-methyl-1H-indol-2-yl)methoxy)pyrimidin-2-amine], the IC50 is 209 nM and 256 nM. On to `CCc1nn(CC(O)COC)nc1COc1nc(N)nc(-c2ccc(F)cc2)c1-c1cc(C)nc(C(F)F)c1` (stereo not drawn) [Example 321, 1-(4-(((2-amino-5-(2-(difluoromethyl)-6-methylpyridin-4-yl)-6-(4-fluorophenyl)pyrimidin-4-yl)oxy)methyl)-5-ethyl-2H-1,2,3-triazol-2-yl)-3-methoxypropan-2-ol], for which the IC50 amounted to 2290 nM. Regarding `CCc1nnn(CC(O)COC)c1COc1nc(N)nc(-c2ccc(F)cc2)c1-c1cc(C)nc(C(F)F)c1` (stereo not drawn) [Example 322, 1-(5-(((2-amino-5-(2-(difluoromethyl)-6-methylpyridin-4-yl)-6-(4-fluorophenyl)pyrimidin-4-yl)oxy)methyl)-4-ethyl-1H-1,2,3-triazol-1-yl)-3-methoxypropan-2-ol], the IC50 was found to be 2470 nM. Take `CCc1c(COc2nc(N)nc(-c3ccc(F)cc3)c2-c2cc(C)nc(C(F)F)c2)nnn1CC(O)COC` (stereo not drawn) [Example 323, 1-(4-(((2-amino-5-(2-(difluoromethyl)-6-methylpyridin-4-yl)-6-(4-fluorophenyl)pyrimidin-4-yl)oxy)methyl)-5-ethyl-1H-1,2,3-triazol-1-yl)-3-methoxypropan-2-ol]: the IC50 turned out to be 1680 nM.

With `CCc1nn(CC(C)(C)C#N)nc1COc1nc(N)nc(-c2ccc(F)cc2)c1-c1cc(C)nc(C(F)F)c1` [Example 324, 3-(4-(((2-amino-5-(2-(difluoromethyl)-6-methylpyridin-4-yl)-6-(4-fluorophenyl)pyrimidin-4-yl)oxy)methyl)-5-ethyl-2H-1,2,3-triazol-2-yl)-2,2-dimethylpropanenitrile], the IC50 turned out to be 2080 nM.

For the compound `Cc1cc(-c2c(OCC3CC(C(=O)O)C3)nc(N)nc2-c2ccc(F)cc2)cc(C(F)F)n1` (stereo not drawn) [Example 325, 3-(((2-amino-5-(2-(difluoromethyl)-6-methylpyridin-4-yl)-6-(4-fluorophenyl)pyrimidin-4-yl)oxy)methyl)cyclobutane-1-carboxylic acid], the IC50 is above 25000 nM. As for `Cc1cc(-c2c(OCc3cccc(N(C)CC(=O)O)n3)nc(N)nc2-c2ccc(F)cc2)cc(C(F)F)n1` [Example 327, N-(6-(((2-amino-5-(2-(difluoromethyl)-6-methylpyridin-4-yl)-6-(4-fluorophenyl)pyrimidin-4-yl)oxy)methyl)pyridin-2-yl)-N-methylglycine], the IC50 is 4390 nM. As to `Cc1cc(-c2c(OCc3cccc(N(C)CCC(=O)O)n3)nc(N)nc2-c2ccc(F)cc2)cc(C(F)F)n1` [Example 328, 3-((6-(((2-amino-5-(2-(difluoromethyl)-6-methylpyridin-4-yl)-6-(4-fluorophenyl)pyrimidin-4-yl)oxy)methyl)pyridin-2-yl)(methyl)amino) propanoic acid], the IC50 was 4510 nM. As to `CCn1[nH]c(=O)cc1COc1nc(N)nc(-c2ccc(F)cc2)c1-c1cc(C)nc(C(F)F)c1` [Example 330, 5-(((2-amino-5-(2-(difluoromethyl)-6-methylpyridin-4-yl)-6-(4-fluorophenyl)pyrimidin-4-yl)oxy)methyl)-1-ethyl-1,2-dihydro-3H-pyrazol-3-one], the IC50 is 2550 nM. `Cc1cc(-c2c(OCc3cc4ccccc4o3)nc(N)nc2-c2ccc(F)cc2)cc(C(F)F)n1` [Example 331, 4-(benzofuran-2-ylmethoxy)-5-(2-(difluoromethyl)-6-methylpyridin-4-yl)-6-(4-fluorophenyl)pyrimidin-2-amine]: the IC50 was found to be 648 nM. For `CCn1c(COc2nc(N)nc(-c3ccc(F)cc3)c2-c2cc(C)nc(C(F)F)c2)nc2ccc(C(=O)O)cc21` [Example 332, 2-(((2-amino-5-(2-(difluoromethyl)-6-methylpyridin-4-yl)-6-(4-fluorophenyl)pyrimidin-4-yl)oxy)methyl)-1-ethyl-1H-benzo[d]imidazole-6-carboxylic acid] the value was above 5000 nM; for `CCn1c(COc2nc(N)nc(-c3ccc(F)cc3)c2-c2cc(C)nc(C(F)F)c2)nc2cc(C(=O)O)ccc21` [Example 333, 2-(((2-amino-5-(2-(difluoromethyl)-6-methylpyridin-4-yl)-6-(4-fluorophenyl)pyrimidin-4-yl)oxy)methyl)-1-ethyl-1H-benzo[d]imidazole-5-carboxylic acid], above 5000 nM; for `Cc1cc(-c2c(OCCn3ccc(C(=O)O)cc3=O)nc(N)nc2-c2ccc(F)cc2)cc(C(F)F)n1` [Example 334, 1-(2-((2-amino-5-(2-(difluoromethyl)-6-methylpyridin-4-yl)-6-(4-fluorophenyl)pyrimidin-4-yl)oxy)ethyl)-2-oxo-1,2-dihydropyridine-4-carboxylic acid], 3170 nM.

Turning to `Cc1cc(-c2c(OCCn3cccc(C(=O)O)c3=O)nc(N)nc2-c2ccc(F)cc2)cc(C(F)F)n1` [Example 335, 1-(2-((2-amino-5-(2-(difluoromethyl)-6-methylpyridin-4-yl)-6-(4-fluorophenyl)pyrimidin-4-yl)oxy)ethyl)-2-oxo-1,2-dihydropyridine-3-carboxylic acid], the IC50 was above 25000 nM. For `Cc1cc(-c2c(OCCn3cc(C(=O)O)ccc3=O)nc(N)nc2-c2ccc(F)cc2)cc(C(F)F)n1` [Example 336, 1-(2-((2-amino-5-(2-(difluoromethyl)-6-methylpyridin-4-yl)-6-(4-fluorophenyl)pyrimidin-4-yl)oxy)ethyl)-6-oxo-1,6-dihydropyridine-3-carboxylic acid], the IC50 was above 25000 nM.

Take `Cc1cc(-c2c(OCCOc3ncccc3C(=O)O)nc(N)nc2-c2ccc(F)cc2)cc(C(F)F)n1` [Example 337, 2-(2-((2-amino-5-(2-(difluoromethyl)-6-methylpyridin-4-yl)-6-(4-fluorophenyl)pyrimidin-4-yl)oxy)ethoxy)nicotinic acid]: the IC50 is above 25000 nM. Take `Cc1cc(-c2c(OCc3cccc(OCCC(C)(C)C(=O)O)n3)nc(N)nc2-c2ccc(F)cc2)cc(C(F)F)n1` [Example 338, 4-((6-(((2-amino-5-(2-(difluoromethyl)-6-methylpyridin-4-yl)-6-(4-fluorophenyl)pyrimidin-4-yl)oxy)methyl)pyridin-2-yl)oxy)-2,2-dimethylbutanoic acid]: the IC50 stood at 2890 nM. As for `CCn1c(COc2nc(N)nc(-c3ccc(F)cc3)c2-c2cc(C)nc(C(F)F)c2)n[nH]c1=O` [Example 340, 5-(((2-amino-5-(2-(difluoromethyl)-6-methylpyridin-4-yl)-6-(4-fluorophenyl)pyrimidin-4-yl)oxy)methyl)-4-ethyl-2,4-dihydro-3H-1,2,4-triazol-3-one], the IC50 was 4080 nM. For `Cc1cc(-c2c(OCc3nc4ccccn4n3)nc(N)nc2-c2ccc(F)cc2)cc(C(F)F)n1` [Example 341, 4-([1,2,4]triazolo[1,5-a]pyridin-2-ylmethoxy)-5-(2-(difluoromethyl)-6-methylpyridin-4-yl)-6-(4-fluorophenyl)pyrimidin-2-amine] the value was 1400 nM; for `Cc1cc(-c2c(OCc3nc4ccccc4o3)nc(N)nc2-c2ccc(F)cc2)cc(C(F)F)n1` [Example 342, 4-(benzo[d]oxazol-2-ylmethoxy)-5-(2-(difluoromethyl)-6-methylpyridin-4-yl)-6-(4-fluorophenyl)pyrimidin-2-amine], 419 nM. For `Cc1cc(-c2c(OCc3cc4ccccc4s3)nc(N)nc2-c2ccc(F)cc2)cc(C(F)F)n1` [Example 343, 4-(benzo[b]thiophen-2-ylmethoxy)-5-(2-(difluoromethyl)-6-methylpyridin-4-yl)-6-(4-fluorophenyl)pyrimidin-2-amine], the IC50 was 1340 nM. Consider `CCn1c(COc2nc(N)nc(-c3ccc(F)cc3)c2-c2cc(C)nc(C(F)F)c2)nc2cccc(C(=O)O)c21` [Example 344, 2-(((2-amino-5-(2-(difluoromethyl)-6-methylpyridin-4-yl)-6-(4-fluorophenyl)pyrimidin-4-yl)oxy)methyl)-1-ethyl-1H-benzo[d]imidazole-7-carboxylic acid], for which the IC50 is above 25000 nM. Regarding `CCn1c(COc2nc(N)nc(-c3ccc(F)cc3)c2-c2cc(C)nc(C(F)F)c2)nc2c(C(=O)O)cccc21` [Example 345, 2-(((2-amino-5-(2-(difluoromethyl)-6-methylpyridin-4-yl)-6-(4-fluorophenyl)pyrimidin-4-yl)oxy)methyl)-1-ethyl-1H-benzo[d]imidazole-4-carboxylic acid], the IC50 stood at 10300 nM. Consider `Cc1cc(-c2c(OCc3cc4c(s3)CCCC4)nc(N)nc2-c2ccc(F)cc2)cc(C(F)F)n1` [Example 346, 5-(2-(difluoromethyl)-6-methylpyridin-4-yl)-4-(4-fluorophenyl)-6-((4,5,6,7-tetrahydrobenzo[b]thiophen-2-yl)methoxy)pyrimidin-2-amine], for which the IC50 stood at 3990 nM. Turning to `Cc1cc(-c2c(OCc3nc4ccccc4s3)nc(N)nc2-c2ccc(F)cc2)cc(C(F)F)n1` [Example 347, 4-(benzo[d]thiazol-2-ylmethoxy)-5-(2-(difluoromethyl)-6-methylpyridin-4-yl)-6-(4-fluorophenyl)pyrimidin-2-amine], the IC50 was 634 nM. On to `Cc1cc(-c2c(OCCc3ccncc3)nc(N)nc2-c2ccc(F)cc2)cc(C(F)F)n1` [Example 348, 5-(2-(difluoromethyl)-6-methylpyridin-4-yl)-4-(4-fluorophenyl)-6-(2-(pyridin-4-yl)ethoxy)pyrimidin-2-amine], for which the IC50 was found to be 2620 nM. Under `Cc1cc(-c2c(NCc3nc4ccccc4n3C)nc(N)nc2-c2ccc(F)cc2)cc(C(F)F)n1` [Example 351, 5-(2-(difluoromethyl)-6-methylpyridin-4-yl)-6-(4-fluorophenyl)-N^4-((1-methyl-1H-benzo[d]imidazol-2-yl)methyl)pyrimidine-2,4-diamine] stands 13100 nM.

The values are drawn from patent US20210355104A1, “ADENOSINE RECEPTOR BINDING COMPOUNDS” (Nikang Therapeuticsm Inc., priority 2018, published 2021).
